Test results from PMC6449294, “SNAPshots of the MCHR1: a Comparison Between the PET-Tracers [^18F]FE@SNAP and [^11C]SNAP-7941” (Molecular Imaging and Biology, 2018).

Tests used:
[1] = molecular target: T1, human serum albumin (HSA) (Homo sapiens, UniProt P02768); experiment: Plasma protein binding using bioaffinity chromatography (CHIRALPAK HSA); type: in vitro ADME; details: bioaffinity chromatography on HSA stationary phase
T1 construct: purchased Daicel Chemical Industries CHIRALPAK HSA, column-batch H13L-2405
T1 sequence (P02768 25-609): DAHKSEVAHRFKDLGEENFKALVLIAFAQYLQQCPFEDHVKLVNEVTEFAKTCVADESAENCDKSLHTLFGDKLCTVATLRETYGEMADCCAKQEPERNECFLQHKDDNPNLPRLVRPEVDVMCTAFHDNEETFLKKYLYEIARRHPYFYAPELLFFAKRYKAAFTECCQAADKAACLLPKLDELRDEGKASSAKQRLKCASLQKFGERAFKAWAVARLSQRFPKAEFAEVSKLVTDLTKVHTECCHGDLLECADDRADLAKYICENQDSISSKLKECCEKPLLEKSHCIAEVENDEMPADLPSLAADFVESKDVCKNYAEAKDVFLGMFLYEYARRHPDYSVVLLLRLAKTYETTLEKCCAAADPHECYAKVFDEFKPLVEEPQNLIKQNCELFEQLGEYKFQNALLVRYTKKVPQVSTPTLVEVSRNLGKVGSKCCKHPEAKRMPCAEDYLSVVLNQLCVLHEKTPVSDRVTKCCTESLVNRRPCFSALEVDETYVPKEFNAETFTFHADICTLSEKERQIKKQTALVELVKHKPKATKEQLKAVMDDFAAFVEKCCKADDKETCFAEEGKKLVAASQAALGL
Procedure: The binding of (±)-SNAP-7941 and FE@SNAP to human serum albumin (HSA) was examined by bioaffinity chromatography according to a previously published manuscript. In short, the analytes were diluted in 2-propanol and ammonium acetate buffer (0.5 mg/ml) and injected on the CHIRALPAK®HSA stationary phase (50 × 3 mm, 5 μm pore size, column-batch: H13L-2405, Daicel Chemical Industries, West Chester, PA, USA). Prior the experiments, the column was calibrated with reference standards, and the resulting regression equation was used to convert the logarithmic capacity factors (log(k′)) to the percent of plasma protein binding (%PPB). The calibration curves, as well as the experiments, were performed by triplicate injections and at least three times.

MCHR1 = molecular target: MCHR1; design: method as in PMID 28808288; details: previous experiments; read-out: Affinity to MCHR1 (Ki); cited from earlier work

Plasma protein binding (%PPB) / Binding to human serum albumin [1] | Compound | Ki (MCHR1)
77 ± 0.2% | COCC1=C(C(=O)OCCF)C(c2ccc(F)c(F)c2)N(C(=O)NCCCN2CCC(c3cccc(NC(C)=O)c3)CC2)C(=O)N1 (racemic) [FE@SNAP, (±)-(2-fluoroethyl)-3-{[(3-{4-[3-(acetylamino)phenyl]-1-piperidinyl}propyl)amin]carbonyl}-4-(3,4-difluorophenyl)-6-(methoxymethyl)-2-oxo-1,2,3,4-tetra-hydro-5-pyrimidenecarboxylate] | 9.98 ± 1.12 nM
80 ± 0.9% | COCC1=C(C(=O)OC)[C@H](c2ccc(F)c(F)c2)N(C(=O)NCCCN2CCC(c3cccc(NC(C)=O)c3)CC2)C(=O)N1 (racemic) [(±)-SNAP-7941, reference compound] | 3.91 ± 0.74 nM
